Source: patent publication US20240174714A1, “TREATMENT OF SKIN DISORDERS” (priority 2021, published 2024)
Square brackets hold non-standard residues; d marks the D form. Peptide text beside a SMILES is read from it. * marks the point of attachment. Adamantane1carbonyl = O=C(C12CC3CC(CC(C3)C1)C2)*; Benzoyl(4-CF3) = O=C(c1ccc(C(F)(F)F)cc1)*; NH((S)CH(Me)CH2NMe2) = C[C@@H](CN(C)C)N*; Gly(octyl) = CCCCCCCC[C@H](N)C(=O)O; Oxazole4CO(2-Me) = Cc1nc(C(=O)*)co1; Benzoyl(4-F) = O=C(c1ccc(F)cc1)*; hCha = N[C@@H](CCC1CCCCC1)C(=O)O; X7 = O=C(c1ccc2[nH]ccc2c1)*; X3 = C[C@@H](CN1CCOCC1)N*; X9 = O=C(c1ccc2ocnc2c1)*; Aib = CC(C)(N)C(=O)O; βAla = NCCC(=O)O

What was measured:
[1] = test system: axenic Leishmania donovani MHOM-ET-67/L82 amastigotes; experiment: In vitro antiprotozoal assay, axenic amastigotes; assay type: cell-based; details: axenic amastigotes; read-out: L.don.ax. IC50
Method: (§1) The testing of the inventive compounds against Leishmania donovani (strain MHOM/ET/67/L82) was performed in 96 well plates at concentrations in serial dilutions. Tests were done in triplicate.

[2] = test system: intracellular Leishmania donovani MHOM-ET-67/L82 amastigotes; experiment: In vitro antiprotozoal assay, intracellular amastigotes; assay type: cell-based; details: intracellular amastigotes; read-out: L.don.InMac IC50
Method: as §1

[3] = Cytotoxicity assay (Alamar Blue) on L6-cells; assay type: cell-based, rat; details: rat
Method: Tests were done in triplicate.
The plates were incubated for additional 2 h.

SMILES: CCCCCCCC[C@H](NC(=O)[C@@H]1CCCN1C(=O)c1ccc2ocnc2c1)C(=O)N[C@@H](CC(C)C)C(=O)NC(C)(C)C(=O)N[C@@H](CC(C)C)C(=O)N[C@@H](CC(C)C)C(=O)NC(C)(C)C(=O)NC(C)(C)C(=O)NCCC(=O)N[C@@H](C)CN(C)C [Compound 5937, (2S)-2-{[(2S)-1-(1,3-benzoxazole-5-carbonyl)pyrrolidin-2-yl]formamido}-N-[(1S)-1-[(1-{[(1S)-1-{[(1S)-1-{[1-({1-[(2-{[(2S)-1-(dimethylamino)propan-2-yl]carbamoyl}ethyl)carbamoyl]-1-methylethyl}carbamoyl)-1-methylethyl]carbamoyl}-3-methylbutyl]carbamoyl}-3-methylbutyl]carbamoyl}-1-methylethyl)carbamoyl]-3-methylbutyl]decanamide] (X9-P[Gly(octyl)]L[Aib]LL[Aib][Aib][βAla]-{NH((S)CH(Me)CH2NMe2)})
- IC50 [1]: 0.0212 µM
- IC50 [2]: 0.0585 µM
- IC50 at 68 h [3]: 1.16 µM

SMILES: CCCCCCCC[C@H](NC(=O)[C@@H]1CCCN1C(=O)c1ccc2[nH]ccc2c1)C(=O)N[C@@H](CC(C)C)C(=O)NC(C)(C)C(=O)N[C@@H](CC(C)C)C(=O)N[C@@H](CC(C)C)C(=O)NC(C)(C)C(=O)NC(C)(C)C(=O)NCCC(=O)N[C@@H](C)CN(C)C [Compound 5911, (2S)—N-[(1S)-1-[(1-{[(1S)-1-{[(1S)-1-{[1-({1-[(2-{[(2S)-1-(dimethylamino)propan-2-yl]carbamoyl}ethyl)carbamoyl]-1-methylethyl}carbamoyl)-1-methylethyl]carbamoyl}-3-methylbutyl]carbamoyl}-3-methylbutyl]carbamoyl}-1-methylethyl)carbamoyl]-3-methylbutyl]-2-{[(2S)-1-(1H-indole-5-carbonyl)pyrrolidin-2-yl]formamido}decanamide] (X7-P[Gly(octyl)]L[Aib]LL[Aib][Aib][βAla]-{NH((S)CH(Me)CH2NMe2)})
- IC50 [1]: 0.0144 µM
- IC50 [2]: 0.0348 µM
- IC50 at 68 h [3]: 0.457 µM

SMILES: CCCCCCCC[C@H](NC(=O)[C@@H]1CCCN1C(=O)c1ccc(C(F)(F)F)cc1)C(=O)N[C@@H](CC(C)C)C(=O)NC(C)(C)C(=O)N[C@@H](CC(C)C)C(=O)N[C@@H](CC(C)C)C(=O)NC(C)(C)C(=O)NC(C)(C)C(=O)NCCC(=O)N[C@@H](C)CN(C)C [Compound 5936, (2S)-N-[(1S)-1-[(1-{[(1S)-1-{[(1S)-1-{[1-({1-[(2-{[(2S)-1-(dimethylamino)propan-2-yl]carbamoyl}ethyl)carbamoyl]-1-methylethyl}carbamoyl)-1-methylethyl]carbamoyl}-3-methylbutyl]carbamoyl}-3-methylbutyl]carbamoyl}-1-methylethyl)carbamoyl]-3-methylbutyl]-2-{[(2S)-1-[4-(trifluoromethyl)benzoyl]pyrrolidin-2-yl]formamido}decanamide] ({Benzoyl(4-CF3)}-P[Gly(octyl)]L[Aib]LL[Aib][Aib][βAla]-{NH((S)CH(Me)CH2NMe2)})
- IC50 [1]: 0.0033 µM
- IC50 [2]: < 0.0332 µM
- IC50 at 68 h [3]: 0.411 µM

SMILES: CCCCCCCC[C@H](NC(=O)[C@@H]1CCCN1C(=O)c1coc(C)n1)C(=O)N[C@@H](CC(C)C)C(=O)NC(C)(C)C(=O)N[C@@H](CC(C)C)C(=O)N[C@@H](CC(C)C)C(=O)NC(C)(C)C(=O)NC(C)(C)C(=O)NCCC(=O)N[C@@H](C)CN(C)C [Compound 5905, (2S)-N-[(1S)-1-[(1-{[(1S)-1-{[(1S)-1-{[1-({1-[(2-{[(2S)-1-(dimethylamino)propan-2-yl]carbamoyl}ethyl)carbamoyl]-1-methylethyl}carbamoyl)-1-methylethyl]carbamoyl}-3-methylbutyl]carbamoyl}-3-methylbutyl]carbamoyl}-1-methylethyl)carbamoyl]-3-methylbutyl]-2-{[(2S)-1-(2-methyl-1,3-oxazole-4-carbonyl)pyrrolidin-2-yl]formamido}decanamide] ({Oxazole4CO(2-Me)}-P[Gly(octyl)]L[Aib]LL[Aib][Aib][βAla]-{NH((S)CH(Me)CH2NMe2)})
- IC50 [1]: 0.0079 µM
- IC50 [2]: 0.0131 µM
- IC50 at 68 h [3]: 0.852 µM

SMILES: Cc1nc(C(=O)N2CCC[C@H]2C(=O)N[C@@H](CCC2CCCCC2)C(=O)N[C@@H](CC(C)C)C(=O)NC(C)(C)C(=O)N[C@@H](CC(C)C)C(=O)N[C@@H](CC(C)C)C(=O)NC(C)(C)C(=O)NC(C)(C)C(=O)NCCC(=O)N[C@@H](C)CN2CCOCC2)co1 [Compound 6026, (2S)-2-[(2S)-2-{2-[(2S)-2-[(2S)-4-cyclohexyl-2-{[(2S)-1-(2-methyl-1,3-oxazole-4-carbonyl)pyrrolidin-2-yl]formamido}butanamido]-4-methylpentanamido]-2-methylpropanamido}-4-methylpentanamido]-4-methyl-N-[1-methyl-1-({1-methyl-1-[(2-{[(2S)-1-(morpholin-4-yl)propan-2-yl]carbamoyl}ethyl)carbamoyl]ethyl}carbamoyl)ethyl]pentanamide] ({Oxazole4CO(2-Me)}-P[hCha]L[Aib]LL[Aib][Aib][βAla]-X3)
- IC50 [1]: 0.0042 µM
- IC50 [2]: 0.0507 µM
- IC50 at 68 h [3]: 1.58 µM

SMILES: CC(C)C[C@H](NC(=O)[C@H](CCC1CCCCC1)NC(=O)[C@@H]1CCCN1C(=O)c1ccc(F)cc1)C(=O)NC(C)(C)C(=O)N[C@@H](CC(C)C)C(=O)N[C@@H](CC(C)C)C(=O)NC(C)(C)C(=O)NC(C)(C)C(=O)NCCC(=O)N[C@@H](C)CN1CCOCC1 [Compound 6028, (2S)-2-[(2S)-2-{2-[(2S)-2-[(2S)-4-cyclohexyl-2-{[(2S)-1-(4-fluorobenzoyl)pyrrolidin-2-yl]formamido}butanamido]-4-methylpentanamido]-2-methylpropanamido}-4-methylpentanamido]-4-methyl-N-[1-methyl-1-({1-methyl-1-[(2-{[(2S)-1-(morpholin-4-yl)propan-2-yl]carbamoyl}ethyl)carbamoyl]ethyl}carbamoyl)ethyl]pentanamide] ({Benzoyl(4-F)}-P[hCha]L[Aib]LL[Aib][Aib][βAla]-X3)
- IC50 [1]: 0.0033 µM
- IC50 [2]: 0.418 µM
- IC50 at 68 h [3]: 1.59 µM

SMILES: CCCCCCCC[C@H](NC(=O)[C@@H]1CCCN1C(=O)C12CC3CC(CC(C3)C1)C2)C(=O)N[C@@H](CC(C)C)C(=O)NC(C)(C)C(=O)N[C@@H](CC(C)C)C(=O)N[C@@H](CC(C)C)C(=O)NC(C)(C)C(=O)NC(C)(C)C(=O)NCCC(=O)N[C@@H](C)CN(C)C [Compound 5770, (2S)-2-{[(2S)-1-(adamantane-1-carbonyl)pyrrolidin-2-yl]formamido}-N-[(1S)-1-[(1-{[(1S)-1-{[(1S)-1-{[1-({1-[(2-{[(2S)-1-(dimethylamino)propan-2-yl]carbamoyl}ethyl)carbamoyl]-1-methylethyl}carbamoyl)-1-methylethyl]carbamoyl}-3-methylbutyl]carbamoyl}-3-methylbutyl]carbamoyl}-1-methylethyl)carbamoyl]-3-methylbutyl]decanamide] (Adamantane1carbonyl-P[Gly(octyl)]L[Aib]LL[Aib][Aib][βAla]-{NH((S)CH(Me)CH2NMe2)})
- IC50 [1]: 0.001 µM
- IC50 [2]: 0.338 µM
- IC50 at 68 h [3]: 0.185 µM
